Data reported in patent US7361666B2, “Heterocyclic analgesic compounds and methods of use thereof” (Sepracor, Inc., priority 1999, dated 2008).

Legend:
μ opioid receptor = μ opioid receptor (Homo sapiens, UniProt P35372); assay: Opiate receptor binding (μ); details: procedure of Wang et al.
From the text: Another assay useful in the present invention concerns determining the ability of a ligand to bind to a biological receptor utilizing a technique well known in the art referred to as a radioligand binding assay. This assay accurately determines the specific binding of a radioligand to a targeted receptor through the delineation of its total and nonspecific binding components. Total binding is defined as the amount of radioligand that remains following the rapid separation of the radioligand bound in a receptor preparation (cell homogenates or recombinate receptors) from that which is unbound. The nonspecific binding component is defined as the amount of radioligand that remains following separation of the reaction mixture consisting of receptor, radioligand and an excess of unlabeled ligand. Under this condition, the only radioligand that remains represents that which is bound to components other that receptor. The specific radioligand bound is determined by subtracting the nonspecific from total radioactivity bound. For a specific example of radioligand binding assay for μ-opioid receptor, see Wang, J. B. et al. FEBS Letters 1994, 338, 217.
(§1) The opioid (μ, κ, δ) receptor-binding capabilities of compounds described herein were determined according to the procedures outlined by Wang et al. (FEBS Letters 1994, 338, 217), Maguire et al. (Eur. J. Pharmacol. 1992, 213, 219), and Simonin et al. (Mol. Pharmacol. 1994, 46, 1015).

κ opioid receptor = κ opioid receptor (Cavia porcellus, UniProt P41144); assay: Opiate receptor binding (κ); details: procedure of Maguire et al.
Sequence of κ opioid receptor (P41144 whole entry): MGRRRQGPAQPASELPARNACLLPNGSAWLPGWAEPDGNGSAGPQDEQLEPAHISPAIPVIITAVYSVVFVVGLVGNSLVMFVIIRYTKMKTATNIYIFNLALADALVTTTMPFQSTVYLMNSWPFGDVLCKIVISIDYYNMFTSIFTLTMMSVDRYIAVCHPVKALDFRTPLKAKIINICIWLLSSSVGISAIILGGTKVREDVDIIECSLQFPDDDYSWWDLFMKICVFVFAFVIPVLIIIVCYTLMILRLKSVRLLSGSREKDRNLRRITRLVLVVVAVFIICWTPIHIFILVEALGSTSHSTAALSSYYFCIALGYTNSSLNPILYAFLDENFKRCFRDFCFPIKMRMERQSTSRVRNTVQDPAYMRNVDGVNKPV
Protocol: as §1

δ opioid receptor = δ opioid receptor (Homo sapiens, UniProt P41143); assay: Opiate receptor binding (δ); details: procedure of Simonin et al.
Sequence of δ opioid receptor (P41143 whole entry): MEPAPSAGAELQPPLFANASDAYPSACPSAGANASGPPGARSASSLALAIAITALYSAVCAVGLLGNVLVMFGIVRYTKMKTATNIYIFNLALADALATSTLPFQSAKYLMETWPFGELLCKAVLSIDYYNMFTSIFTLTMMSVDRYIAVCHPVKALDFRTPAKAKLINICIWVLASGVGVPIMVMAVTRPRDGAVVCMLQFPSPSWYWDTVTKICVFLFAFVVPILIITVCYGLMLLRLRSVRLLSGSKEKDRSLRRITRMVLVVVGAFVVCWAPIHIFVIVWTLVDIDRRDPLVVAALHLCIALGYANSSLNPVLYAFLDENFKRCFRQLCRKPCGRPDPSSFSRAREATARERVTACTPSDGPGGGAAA
Protocol: as §1

Sequence of μ opioid receptor (P35372 whole entry): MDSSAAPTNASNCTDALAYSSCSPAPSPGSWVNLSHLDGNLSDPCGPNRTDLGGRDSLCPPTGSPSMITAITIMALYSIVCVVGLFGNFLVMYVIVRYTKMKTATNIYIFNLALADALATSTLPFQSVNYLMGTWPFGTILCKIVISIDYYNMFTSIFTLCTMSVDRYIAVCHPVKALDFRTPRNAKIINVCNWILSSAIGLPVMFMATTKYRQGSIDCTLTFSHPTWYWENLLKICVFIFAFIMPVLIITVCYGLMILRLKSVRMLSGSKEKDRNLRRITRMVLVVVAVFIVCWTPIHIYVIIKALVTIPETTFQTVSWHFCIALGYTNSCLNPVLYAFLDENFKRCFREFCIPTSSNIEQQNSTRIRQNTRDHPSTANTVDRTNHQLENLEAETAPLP

Compound	IC50 (μ opioid receptor)	IC50 (κ opioid receptor)	IC50 (δ opioid receptor)
CCC(=O)N(CC1CCCN(CCc2ccccc2)C1)C(C)c1ccccc1 (single isomer, unassigned) [Compound 220, N-(1-Phenethyl-piperidin-3-ylmethyl)-N-(1-phenyl-ethyl)-propionamide]	< 1000 nM	< 1000 nM	> 1000 nM
CCC(=O)N(CC1CCCN(CCc2ccccc2)C1)C(C)c1ccccc1 (single isomer, unassigned) [Compound 224, N-(1-Phenethyl-piperidin-3-ylmethyl)-N-(1-phenyl-ethyl)-propionamide]	< 1000 nM	> 1000 nM	> 1000 nM
CCC(=O)N(CC1CCCN(CCc2ccccc2)C1)C(C)c1ccccc1 (single isomer, unassigned) [Compound 222, N-(1-Phenethyl-piperidin-3-ylmethyl)-N-(1-phenyl-ethyl)-propionamide]	> 1000 nM	> 1000 nM	> 1000 nM
CCC(=O)N(CC1CCCN(CCc2ccccc2)C1)C(C)c1ccccc1 (single isomer, unassigned) [Compound 225, N-(1-Phenethyl-piperidin-3-ylmethyl)-N-(1-phenyl-ethyl)-propionamide]	< 1000 nM	> 1000 nM	> 1000 nM
CCC(=O)N(CC1CCCN(CCc2ccccc2)C1)C(C)c1ccccc1 (single isomer, unassigned) [Compound 223, N-(1-Phenethyl-piperidin-3-ylmethyl)-N-(1-phenyl-ethyl)-propionamide]	< 100 nM	> 1000 nM	> 1000 nM
CCC(=O)N(CC1CCCN(CCc2ccccc2)C1)C(C)c1ccccc1 (single isomer, unassigned) [Compound 221, N-(1-Phenethyl-piperidin-3-ylmethyl)-N-(1-phenyl-ethyl)-propionamide]	< 1000 nM	< 1000 nM	> 1000 nM
